Molecular target: T1, InvD1L (invertebrate specific D1-like dopamine receptor) (Ixodes scapularis, UniProt A0ACM8DGL0)
T1 sequence (A0ACM8DGL0 1-457): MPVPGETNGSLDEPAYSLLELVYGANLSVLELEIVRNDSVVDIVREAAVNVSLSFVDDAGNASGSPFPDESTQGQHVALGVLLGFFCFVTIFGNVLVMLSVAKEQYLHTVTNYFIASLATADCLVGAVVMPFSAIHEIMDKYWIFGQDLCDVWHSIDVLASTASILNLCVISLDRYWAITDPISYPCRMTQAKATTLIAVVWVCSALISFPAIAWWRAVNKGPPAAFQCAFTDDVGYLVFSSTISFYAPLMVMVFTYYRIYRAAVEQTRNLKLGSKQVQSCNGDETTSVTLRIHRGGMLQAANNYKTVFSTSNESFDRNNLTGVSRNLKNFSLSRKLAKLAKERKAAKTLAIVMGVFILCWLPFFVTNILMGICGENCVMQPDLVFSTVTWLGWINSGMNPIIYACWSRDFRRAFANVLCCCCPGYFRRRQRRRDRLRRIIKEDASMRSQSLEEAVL
Assay: cell-based

EC50: 1340 nM
SMILES: NCCc1ccc(O)c(O)c1 [DA, dopamine]

Reference: PMC3997621 (The Journal of comparative neurology, 2014)
